{"source": "patent US20260284018A1", "about": "“DUAL INHIBITORS OF DYRK1A AND 5-HT2 FOR TREATING A BRAIN DISORDER” (THE REGENTS OF THE UNIVERSITY OF CALIFORNIA, priority 2023, published 2026)", "key": {"[1]": {"biological_target": "T1, ABL1(E255K)-phosphorylated (Homo sapiens, UniProt P00519, E255K)", "T1 construct": "purchased Eurofins DiscoverX", "test": "KINOMEscan scanEDGE", "assay_type": "binding", "conditions": "read-out: Percent Control", "procedure": "(§1) Kinome Scan. Compound HTW_A_8 fumarate was screened against 97 kinases at a single concentration of 10 μM at Eurofins DiscoverX using their KINOMEscan™ scanEDGE assay. The results are reported as the % activity relative to DMSO control, where lower values indicate higher affinity. See Table 1 for the full kinome profile."}, "[2]": {"biological_target": "T2, ERK1 (Homo sapiens, UniProt P27361)", "T2 construct": "purchased Eurofins DiscoverX", "test": "KINOMEscan scanEDGE", "assay_type": "binding", "conditions": "read-out: Percent Control", "procedure": "as §1"}, "[3]": {"biological_target": "T3, DCAMKL1 (Homo sapiens, UniProt O15075)", "T3 construct": "purchased Eurofins DiscoverX", "test": "KINOMEscan scanEDGE", "assay_type": "binding", "conditions": "read-out: Percent Control", "procedure": "as §1"}, "[4]": {"biological_target": "T4, PIK3C2B (Homo sapiens, UniProt O00750)", "T4 construct": "purchased Eurofins DiscoverX (KINOMEscan scanEDGE service)", "test": "KINOMEscan scanEDGE", "assay_type": "binding", "conditions": "read-out: Percent Control", "procedure": "as §1"}, "[5]": {"biological_target": "T5, TRKA (Homo sapiens, UniProt P04629)", "T5 construct": "purchased Eurofins DiscoverX KINOMEscan scanEDGE", "T5 sequence (P04629 33-796)": "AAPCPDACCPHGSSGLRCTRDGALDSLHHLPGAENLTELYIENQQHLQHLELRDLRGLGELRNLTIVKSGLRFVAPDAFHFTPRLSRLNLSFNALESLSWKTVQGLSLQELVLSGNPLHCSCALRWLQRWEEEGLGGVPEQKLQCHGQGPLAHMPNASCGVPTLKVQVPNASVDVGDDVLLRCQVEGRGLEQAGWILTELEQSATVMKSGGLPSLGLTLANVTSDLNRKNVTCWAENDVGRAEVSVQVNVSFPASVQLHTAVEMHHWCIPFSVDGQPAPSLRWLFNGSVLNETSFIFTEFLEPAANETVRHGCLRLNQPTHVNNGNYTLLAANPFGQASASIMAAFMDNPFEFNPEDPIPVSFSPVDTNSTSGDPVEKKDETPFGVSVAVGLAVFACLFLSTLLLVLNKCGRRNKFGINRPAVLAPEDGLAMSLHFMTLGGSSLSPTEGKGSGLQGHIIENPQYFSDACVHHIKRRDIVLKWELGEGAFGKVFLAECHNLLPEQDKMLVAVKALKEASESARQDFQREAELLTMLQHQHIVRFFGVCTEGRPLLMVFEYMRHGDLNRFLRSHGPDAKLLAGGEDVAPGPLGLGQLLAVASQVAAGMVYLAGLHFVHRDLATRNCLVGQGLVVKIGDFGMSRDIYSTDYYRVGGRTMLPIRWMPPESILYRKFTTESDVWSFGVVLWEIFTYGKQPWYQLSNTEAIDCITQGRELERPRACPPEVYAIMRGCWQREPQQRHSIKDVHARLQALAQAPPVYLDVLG", "test": "KINOMEscan scanEDGE", "assay_type": "binding", "conditions": "read-out: Percent Control", "procedure": "as §1"}, "[6]": {"biological_target": "T6, FAK (Homo sapiens, UniProt Q05397)", "T6 construct": "purchased Eurofins DiscoverX", "test": "KINOMEscan scanEDGE", "assay_type": "binding", "conditions": "read-out: Percent Control", "procedure": "as §1"}, "[7]": {"biological_target": "T7, BTK (Homo sapiens, UniProt Q06187)", "T7 construct": "purchased Eurofins DiscoverX", "test": "KINOMEscan scanEDGE", "assay_type": "binding", "conditions": "read-out: Percent Control", "procedure": "as §1"}, "[8]": {"biological_target": "T8, MAPKAPK2 (Homo sapiens, UniProt P49137)", "T8 construct": "purchased Eurofins DiscoverX (KINOMEscan scanEDGE service)", "test": "KINOMEscan scanEDGE", "assay_type": "binding", "conditions": "read-out: Percent Control", "procedure": "as §1"}, "[9]": {"biological_target": "T9, MARK3 (Homo sapiens, UniProt P27448)", "T9 construct": "purchased Eurofins DiscoverX (KINOMEscan scanEDGE service)", "conditions": "10 μM; cited from earlier work"}, "[10]": {"biological_target": "T10, PDGFRB (Homo sapiens, UniProt P09619)", "T10 construct": "purchased Eurofins DiscoverX (KINOMEscan scanEDGE service)", "T10 sequence (P09619 33-1106)": "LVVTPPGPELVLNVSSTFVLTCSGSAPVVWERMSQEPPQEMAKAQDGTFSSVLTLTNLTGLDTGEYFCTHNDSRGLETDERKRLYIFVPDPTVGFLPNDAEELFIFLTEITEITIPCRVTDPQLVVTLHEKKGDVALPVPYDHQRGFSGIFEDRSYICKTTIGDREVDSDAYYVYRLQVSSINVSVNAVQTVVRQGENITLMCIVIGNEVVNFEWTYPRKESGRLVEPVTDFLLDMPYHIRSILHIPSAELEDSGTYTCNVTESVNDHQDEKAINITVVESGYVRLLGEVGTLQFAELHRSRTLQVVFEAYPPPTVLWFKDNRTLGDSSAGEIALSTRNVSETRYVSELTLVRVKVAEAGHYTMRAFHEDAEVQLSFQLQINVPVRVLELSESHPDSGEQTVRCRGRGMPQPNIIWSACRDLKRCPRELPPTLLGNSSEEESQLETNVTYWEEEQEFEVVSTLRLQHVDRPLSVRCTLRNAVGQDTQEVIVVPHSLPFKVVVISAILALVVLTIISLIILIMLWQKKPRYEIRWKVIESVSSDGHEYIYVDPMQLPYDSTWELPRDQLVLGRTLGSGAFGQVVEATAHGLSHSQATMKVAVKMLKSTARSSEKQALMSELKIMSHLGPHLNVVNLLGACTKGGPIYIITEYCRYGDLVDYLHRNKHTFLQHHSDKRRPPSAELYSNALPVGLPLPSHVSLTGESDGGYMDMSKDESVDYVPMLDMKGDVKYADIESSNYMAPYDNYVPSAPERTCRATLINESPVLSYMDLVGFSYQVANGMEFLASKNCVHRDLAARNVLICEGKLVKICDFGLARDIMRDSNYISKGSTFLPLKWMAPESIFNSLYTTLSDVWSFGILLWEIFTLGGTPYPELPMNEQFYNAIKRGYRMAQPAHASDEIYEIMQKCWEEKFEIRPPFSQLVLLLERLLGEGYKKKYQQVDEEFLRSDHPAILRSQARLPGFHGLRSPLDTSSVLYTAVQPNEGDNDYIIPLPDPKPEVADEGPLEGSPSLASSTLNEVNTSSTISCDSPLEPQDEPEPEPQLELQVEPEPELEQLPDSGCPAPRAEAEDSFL", "conditions": "10 μM; cited from earlier work"}, "[11]": {"biological_target": "T4, PIK3C2B", "conditions": "10 μM; cited from earlier work"}, "[12]": {"biological_target": "T11, ROCK2 (Homo sapiens, UniProt O75116)", "T11 construct": "purchased Eurofins DiscoverX KINOMEscan scanEDGE", "conditions": "10 μM; cited from earlier work"}, "[13]": {"biological_target": "T12, JAK2(JH1domain-catalytic) (Homo sapiens, UniProt O60674)", "T12 construct": "JAK2(JH1domain-catalytic); purchased Eurofins DiscoverX", "conditions": "10 μM; cited from earlier work"}, "[14]": {"biological_target": "T13, BRAF (Homo sapiens, UniProt P15056)", "T13 construct": "purchased Eurofins DiscoverX", "conditions": "10 μM; cited from earlier work"}, "[15]": {"biological_target": "T14, MKNK1 (Homo sapiens, UniProt Q9BUB5)", "T14 construct": "purchased Eurofins DiscoverX (KINOMEscan scanEDGE service)", "conditions": "10 μM; cited from earlier work"}, "[16]": {"biological_target": "T15, PAK2 (Homo sapiens, UniProt Q13177)", "T15 construct": "purchased Eurofins DiscoverX (KINOMEscan scanEDGE service)", "conditions": "10 μM; cited from earlier work"}, "[17]": {"biological_target": "T16, TYK2(JH1domain-catalytic) (Homo sapiens, UniProt P29597)", "T16 construct": "TYK2(JH1domain-catalytic); purchased Eurofins DiscoverX KINOMEscan scanEDGE", "T16 sequence (P29597 897-1176 limits assumed)": "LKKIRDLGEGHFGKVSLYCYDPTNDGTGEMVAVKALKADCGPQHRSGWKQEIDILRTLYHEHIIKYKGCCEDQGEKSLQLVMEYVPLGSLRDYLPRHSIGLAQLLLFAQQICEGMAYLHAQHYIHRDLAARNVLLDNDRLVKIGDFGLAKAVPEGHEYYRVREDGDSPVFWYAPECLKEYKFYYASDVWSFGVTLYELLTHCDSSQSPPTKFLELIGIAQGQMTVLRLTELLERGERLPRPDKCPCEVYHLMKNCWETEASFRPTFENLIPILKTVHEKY", "conditions": "10 μM; cited from earlier work"}, "[18]": {"biological_target": "T17, PRKCE (Homo sapiens, UniProt Q02156)", "T17 construct": "purchased Eurofins DiscoverX KINOMEscan scanEDGE", "conditions": "10 μM; cited from earlier work"}, "[19]": {"biological_target": "T18, EPHA2 (Homo sapiens, UniProt P29317)", "T18 construct": "purchased Eurofins DiscoverX", "conditions": "10 μM; cited from earlier work"}, "[20]": {"biological_target": "T19, PLK1 (Homo sapiens, UniProt P53350)", "T19 construct": "purchased Eurofins DiscoverX KINOMEscan scanEDGE", "conditions": "10 μM; cited from earlier work"}, "[21]": {"biological_target": "T20, RSK2(Kin.Dom.1-N-terminal) (Homo sapiens, UniProt P51812)", "T20 construct": "RSK2(Kin.Dom.1-N-terminal); purchased Eurofins DiscoverX KINOMEscan scanEDGE", "T20 sequence (P51812 68-327 limits assumed)": "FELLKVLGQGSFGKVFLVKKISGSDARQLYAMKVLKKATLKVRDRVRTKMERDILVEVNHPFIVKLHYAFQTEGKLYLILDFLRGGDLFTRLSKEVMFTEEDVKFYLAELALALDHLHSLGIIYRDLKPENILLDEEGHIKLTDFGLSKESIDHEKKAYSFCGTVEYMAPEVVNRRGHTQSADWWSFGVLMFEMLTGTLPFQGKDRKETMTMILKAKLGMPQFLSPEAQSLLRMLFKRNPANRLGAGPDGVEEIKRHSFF", "conditions": "10 μM; cited from earlier work"}, "[22]": {"biological_target": "T7, BTK", "conditions": "10 μM; cited from earlier work"}, "[23]": {"biological_target": "T21, RET (Homo sapiens, UniProt P07949)", "T21 construct": "purchased Eurofins DiscoverX KINOMEscan scanEDGE", "conditions": "10 μM; cited from earlier work"}, "[24]": {"biological_target": "T22, CSNK1G2 (Homo sapiens, UniProt P78368)", "T22 construct": "purchased Eurofins DiscoverX", "conditions": "10 μM; cited from earlier work"}, "[25]": {"biological_target": "T23, PDPK1 (Homo sapiens, UniProt O15530)", "T23 construct": "purchased Eurofins DiscoverX (KINOMEscan scanEDGE service)", "conditions": "10 μM; cited from earlier work"}, "[26]": {"biological_target": "T24, ZAP70 (Homo sapiens, UniProt P43403)", "T24 construct": "purchased Eurofins DiscoverX KINOMEscan scanEDGE", "conditions": "10 μM; cited from earlier work"}, "[27]": {"biological_target": "T25, PDGFRA (Homo sapiens, UniProt P16234)", "T25 construct": "purchased Eurofins DiscoverX (KINOMEscan scanEDGE service)", "conditions": "10 μM; cited from earlier work"}, "[28]": {"biological_target": "T26, CSF1R (Homo sapiens, UniProt P07333)", "T26 construct": "purchased Eurofins DiscoverX", "conditions": "10 μM; cited from earlier work"}, "[29]": {"biological_target": "T27, ADCK3 (Homo sapiens, UniProt Q8NI60)", "T27 construct": "purchased Eurofins DiscoverX", "conditions": "10 μM; cited from earlier work"}, "[30]": {"biological_target": "T28, PAK4 (Homo sapiens, UniProt O96013)", "T28 construct": "purchased Eurofins DiscoverX (KINOMEscan scanEDGE service)", "conditions": "10 μM; cited from earlier work"}, "[31]": {"biological_target": "T29, PAK1 (Homo sapiens, UniProt Q13153)", "T29 construct": "purchased Eurofins DiscoverX (KINOMEscan scanEDGE service)", "conditions": "10 μM; cited from earlier work"}, "[32]": {"biological_target": "T30, LKB1 (Homo sapiens, UniProt Q15831)", "T30 construct": "purchased Eurofins DiscoverX (KINOMEscan scanEDGE service)", "conditions": "10 μM; cited from earlier work"}, "[33]": {"biological_target": "T31, MAP3K4 (Homo sapiens, UniProt Q9Y6R4)", "T31 construct": "purchased Eurofins DiscoverX (KINOMEscan scanEDGE service)", "conditions": "10 μM; cited from earlier work"}, "[34]": {"biological_target": "T32, BRAF(V600E) (Homo sapiens, UniProt P15056, V600E)", "T32 construct": "purchased Eurofins DiscoverX", "T32 sequence (P15056 whole entry V600E)": "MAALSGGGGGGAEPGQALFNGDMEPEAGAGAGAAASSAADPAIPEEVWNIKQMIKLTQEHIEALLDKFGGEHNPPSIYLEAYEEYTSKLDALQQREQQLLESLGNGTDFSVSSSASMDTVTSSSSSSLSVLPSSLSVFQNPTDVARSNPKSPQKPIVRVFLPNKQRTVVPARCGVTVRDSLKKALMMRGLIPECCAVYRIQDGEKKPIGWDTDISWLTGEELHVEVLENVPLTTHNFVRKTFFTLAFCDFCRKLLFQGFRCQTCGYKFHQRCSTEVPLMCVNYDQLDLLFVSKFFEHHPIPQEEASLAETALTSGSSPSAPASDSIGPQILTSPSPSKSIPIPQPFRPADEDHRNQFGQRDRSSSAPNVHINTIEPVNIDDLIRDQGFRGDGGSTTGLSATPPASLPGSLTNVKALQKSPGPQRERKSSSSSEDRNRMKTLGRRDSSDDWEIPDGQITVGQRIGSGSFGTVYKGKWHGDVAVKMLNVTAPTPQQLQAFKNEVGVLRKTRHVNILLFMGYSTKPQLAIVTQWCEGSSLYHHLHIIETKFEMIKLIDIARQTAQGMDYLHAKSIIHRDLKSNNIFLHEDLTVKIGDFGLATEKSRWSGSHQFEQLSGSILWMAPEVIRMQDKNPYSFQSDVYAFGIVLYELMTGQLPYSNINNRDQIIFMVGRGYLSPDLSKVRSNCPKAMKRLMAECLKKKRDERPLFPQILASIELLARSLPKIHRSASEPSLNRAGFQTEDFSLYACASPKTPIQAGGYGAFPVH", "conditions": "10 μM; cited from earlier work"}, "[35]": {"biological_target": "T33, JNK3 (Homo sapiens, UniProt P53779)", "T33 construct": "purchased Eurofins DiscoverX", "T33 sequence (P53779 whole entry)": "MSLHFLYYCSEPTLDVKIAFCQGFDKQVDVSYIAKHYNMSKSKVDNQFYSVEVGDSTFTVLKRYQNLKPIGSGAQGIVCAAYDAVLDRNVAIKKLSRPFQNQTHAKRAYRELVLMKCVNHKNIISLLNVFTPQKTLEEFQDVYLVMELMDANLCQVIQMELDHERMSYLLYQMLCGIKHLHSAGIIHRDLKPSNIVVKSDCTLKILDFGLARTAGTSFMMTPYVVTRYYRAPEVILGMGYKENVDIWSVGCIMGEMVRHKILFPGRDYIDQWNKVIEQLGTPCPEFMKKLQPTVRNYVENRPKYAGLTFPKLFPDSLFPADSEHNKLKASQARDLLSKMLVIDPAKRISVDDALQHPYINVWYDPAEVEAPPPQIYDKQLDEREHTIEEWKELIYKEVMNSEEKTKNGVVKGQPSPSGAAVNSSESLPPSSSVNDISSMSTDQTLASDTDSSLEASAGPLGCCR", "conditions": "10 μM; cited from earlier work"}, "[36]": {"biological_target": "T34, IKK-alpha (Homo sapiens, UniProt O15111)", "T34 construct": "purchased Eurofins DiscoverX", "T34 sequence (O15111 whole entry)": "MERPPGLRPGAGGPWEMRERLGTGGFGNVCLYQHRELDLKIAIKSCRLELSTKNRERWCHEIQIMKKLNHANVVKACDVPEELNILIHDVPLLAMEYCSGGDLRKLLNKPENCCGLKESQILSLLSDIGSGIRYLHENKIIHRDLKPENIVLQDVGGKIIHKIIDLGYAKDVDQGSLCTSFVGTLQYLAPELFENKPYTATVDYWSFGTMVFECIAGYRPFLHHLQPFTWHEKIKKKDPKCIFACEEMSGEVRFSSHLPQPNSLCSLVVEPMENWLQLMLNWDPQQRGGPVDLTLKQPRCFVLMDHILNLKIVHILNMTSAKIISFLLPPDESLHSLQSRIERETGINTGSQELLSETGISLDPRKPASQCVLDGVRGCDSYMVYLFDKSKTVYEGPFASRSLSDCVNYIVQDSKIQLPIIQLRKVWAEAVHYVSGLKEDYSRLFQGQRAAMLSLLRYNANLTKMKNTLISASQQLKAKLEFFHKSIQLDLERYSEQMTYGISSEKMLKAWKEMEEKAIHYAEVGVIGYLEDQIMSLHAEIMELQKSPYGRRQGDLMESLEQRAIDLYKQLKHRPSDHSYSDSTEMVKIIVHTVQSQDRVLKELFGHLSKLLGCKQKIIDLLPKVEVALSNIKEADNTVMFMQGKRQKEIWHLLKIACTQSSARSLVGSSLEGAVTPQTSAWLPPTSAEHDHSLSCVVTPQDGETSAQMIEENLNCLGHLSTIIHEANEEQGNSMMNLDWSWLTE", "conditions": "10 μM; cited from earlier work"}, "[37]": {"biological_target": "T35, YANK3 (Homo sapiens, UniProt Q86UX6)", "T35 construct": "purchased Eurofins DiscoverX KINOMEscan scanEDGE", "T35 sequence (Q86UX6 whole entry)": "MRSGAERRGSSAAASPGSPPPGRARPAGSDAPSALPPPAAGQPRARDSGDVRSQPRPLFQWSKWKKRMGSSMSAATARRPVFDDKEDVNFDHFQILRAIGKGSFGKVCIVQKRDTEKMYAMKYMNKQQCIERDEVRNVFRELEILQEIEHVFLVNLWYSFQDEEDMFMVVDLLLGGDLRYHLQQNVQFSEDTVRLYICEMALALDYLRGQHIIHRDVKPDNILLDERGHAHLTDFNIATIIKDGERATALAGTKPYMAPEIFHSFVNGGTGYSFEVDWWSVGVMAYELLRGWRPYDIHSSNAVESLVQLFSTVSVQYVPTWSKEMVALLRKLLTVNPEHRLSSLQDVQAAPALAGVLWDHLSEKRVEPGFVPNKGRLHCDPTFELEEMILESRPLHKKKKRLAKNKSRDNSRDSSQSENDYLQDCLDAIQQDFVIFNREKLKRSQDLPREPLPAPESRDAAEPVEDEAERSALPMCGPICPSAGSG", "conditions": "10 μM; cited from earlier work"}}}
{"smiles": "COc1ccc2c3ccnc(C)c3n(CCN(C)C)c2c1.O=C(O)/C=C/C(=O)O", "note": "[HTW_A_8 fumarate, 2-(7-methoxy-1-methyl-9H-pyrido[3,4-b]indol-9-yl)-N,N-dimethylethan-1-amine Fumarate Salt (2:3)]", "values": [{"measurement": "remaining binding at 10 µM", "setting": "[1]", "value": 79, "unit": "%"}, {"measurement": "remaining binding at 10 µM", "setting": "[2]", "value": 85, "unit": "%"}, {"measurement": "remaining binding at 10 µM", "setting": "[3]", "value": 98, "unit": "%"}, {"measurement": "remaining binding at 10 µM", "setting": "[4]", "value": 100, "unit": "%"}, {"measurement": "remaining binding at 10 µM", "setting": "[5]", "value": 93, "unit": "%"}, {"measurement": "remaining binding at 10 µM", "setting": "[6]", "value": 100, "unit": "%"}, {"measurement": "remaining binding at 10 µM", "setting": "[7]", "value": 100, "unit": "%"}, {"measurement": "remaining binding at 10 µM", "setting": "[8]", "value": 99, "unit": "%"}]}
{"smiles": "COc1ccc2c(c1)[nH]c1c(C)nccc12", "note": "[Harmine, harmine]", "values": [{"measurement": "Percent Control", "setting": "[9]", "value": 91, "unit": "%"}, {"measurement": "Percent Control", "setting": "[10]", "value": 84, "unit": "%"}, {"measurement": "Percent Control", "setting": "[11]", "value": 97, "unit": "%"}, {"measurement": "Percent Control", "setting": "[12]", "value": 43, "unit": "%"}, {"measurement": "Percent Control", "setting": "[13]", "value": 92, "unit": "%"}, {"measurement": "Percent Control", "setting": "[14]", "value": 100, "unit": "%"}, {"measurement": "Percent Control", "setting": "[15]", "value": 79, "unit": "%"}, {"measurement": "Percent Control", "setting": "[16]", "value": 47, "unit": "%"}, {"measurement": "Percent Control", "setting": "[17]", "value": 96, "unit": "%"}, {"measurement": "Percent Control", "setting": "[18]", "value": 91, "unit": "%"}, {"measurement": "Percent Control", "setting": "[19]", "value": 93, "unit": "%"}, {"measurement": "Percent Control", "setting": "[20]", "value": 93, "unit": "%"}, {"measurement": "Percent Control", "setting": "[21]", "value": 72, "unit": "%"}, {"measurement": "Percent Control", "setting": "[22]", "value": 100, "unit": "%"}, {"measurement": "Percent Control", "setting": "[23]", "value": 91, "unit": "%"}, {"measurement": "Percent Control", "setting": "[24]", "value": 19, "unit": "%"}, {"measurement": "Percent Control", "setting": "[25]", "value": 100, "unit": "%"}, {"measurement": "Percent Control", "setting": "[26]", "value": 92, "unit": "%"}, {"measurement": "Percent Control", "setting": "[27]", "value": 90, "unit": "%"}, {"measurement": "Percent Control", "setting": "[28]", "value": 88, "unit": "%"}, {"measurement": "Percent Control", "setting": "[29]", "value": 88, "unit": "%"}, {"measurement": "Percent Control", "setting": "[30]", "value": 76, "unit": "%"}, {"measurement": "Percent Control", "setting": "[31]", "value": 73, "unit": "%"}, {"measurement": "Percent Control", "setting": "[32]", "value": 91, "unit": "%"}, {"measurement": "Percent Control", "setting": "[33]", "value": 93, "unit": "%"}, {"measurement": "Percent Control", "setting": "[34]", "value": 90, "unit": "%"}, {"measurement": "Percent Control", "setting": "[35]", "value": 80, "unit": "%"}, {"measurement": "Percent Control", "setting": "[36]", "value": 81, "unit": "%"}, {"measurement": "Percent Control", "setting": "[37]", "value": 77, "unit": "%"}]}
